# Experimental data: patent US11318154B2 (priority 2019, dated 2022)
# Legend:
# C. difficile VPI 10463 = experiment: C. difficile mice model (spore challenge), survival; format: in vivo; details: C57BL/6 mice, 1×10^5 C. difficile VPI10463 spores by gavage, daily injection
# Procedure: To further determine the in vivo protective effect of glycyrrhizin on mice, a C. difficile mice model was established particularly the one as described in Guo, S. et al, (2015), Vaccine 33, 1586-1595. Briefly, C57BL/6 mice were given water mixed with a mixture of kanamycin (Sigma, MO) (0.4×10^−3 mg/L), gentamicin (Sigma, MO) (0.035×10^−3 mg/L), colistin (Sigma, MO) (850 U/mL), metronidazole (Sigma, MO) (0.215×10^−3 mg/L), and vancomycin (Sigma, MO) (0.045×10^−3 mg/L) for 3 days. All mice were then provided with regular autoclaved water for 2 days and administered with a single dose of clindamycin (Sigma, MO) (10 mg/kg) intraperitoneally 1 day before the C. difficile challenge. Mice were injected with glycyrrhizin daily on or before the day of C. difficile VPI 10463 spores challenge. All mice were then challenged with 1×10^5 of prepared C. difficile (strain VPI10463) spores by gavage feeding. The mice were intensively monitored daily after challenge for the presence and severity of diarrhea and other symptoms of illness or mortality. Body weight was measured once a day at the same time each day. Mice judged to be in a moribund state were euthanized by carbon dioxide.
# [1] = tested on: TcdB-induced disruption in colon epithelium; experiment: Mice colon ligation loop model with TcdB injection, H&E histological scoring; format: in vivo, C57BL/6 mice; details: intraperitoneal pre-treatment daily for two days, 10 μg TcdB in loop, 8 h
# Procedure: The inventors used a mice colon ligation loop model to mimic C. difficile infection as TcdB is released into the lumen of the colon during C. difficile infection. All procedures were performed according to the animal protocol approved by the Cornell University IACUC (2017-0112). 6-8 weeks old of C57BL/6 mice were administrated with glycyrrhizin acid (50 mg/kg) daily via intraperitoneal injection two days before surgery. After overnight fasting, mice were anaesthetized and dissected via a midline laparotomy. A length of about 2 cm colon tissue was ligated and either saline or TcdB was injected into ligated loop for treatment. Mice were sutured and allowed to recover. After 8 hours, mice were euthanized and the ligated colon segments were excised and subjected to H&E staining. HE scoring was blindly assessed by a pathologist.
smiles,measurement,setting,value
CC1(C)[C@@H](O[C@H]2O[C@H](C(=O)O)[C@@H](O)[C@H](O)[C@H]2O[C@@H]2O[C@H](C(=O)O)[C@@H](O)[C@H](O)[C@H]2O)CC[C@]2(C)[C@H]3C(=O)C=C4[C@@H]5C[C@@](C)(C(=O)O)CC[C@]5(C)CC[C@@]4(C)[C@]3(C)CC[C@@H]12 [glycyrrhizin],survival at the end of experiment,C. difficile VPI 10463,100%
same,epithelial layer damage of ligated colon tissue (histology),[1],less epithelial layer damages
